Legend:
Assay type in all cases: cell-based, human
[1] = test system: plated pancreatic progenitors; experiment: Latrunculin A at different stages of SC-β cell differentiation of plated pancreatic progenitors (flow cytometry, GSIS, insulin content, qRT-PCR)
Description: For experiments investigating the effects of plating pancreatic progenitors, cells were differentiated with the suspension protocol for stages 1-3. At the end of stage 3, clusters were single cell dispersed with TrypLE and plated onto tissue culture plates coated with various ECM proteins at 0.625×10^6 cells/cm^2. Differentiation media for the remainder of this hybrid protocol were the same as for the suspension protocol with the exception that Y-27632 and Activin A were omitted on days 2-5 of stage 4. […] A variety of ECM coatings were initially tested with this plating methodology, including collagen I (Corning, 354249), collagen IV (Corning, 354245), fibronectin (Gibco, 33016-015), vitronectin (Gibco, A14700), matrigel (Corning, 356230), gelatin (Fisher, G7-500), and laminins 111, 121, 211, 221, 411, 421, 511, and 521 (Biolamina, LNKT-0201). All subsequent experiments with this hybrid protocol were performed on collagen I.
RNA was extracted from either whole clusters or cells directly on the plate with the RNeasy Mini Kit (Qiagen, 74016). Samples were treated with a DNAse kit (Qiagen, 79254) during extraction. The High Capacity cDNA Reverse Transcriptase Kit (Applied Biosystems, 4368814) was used to synthesize cDNA on a thermocycler (Applied Biosystems, A37028). The PowerUp SYBR Green Master Mix (Applied Biosystems, A25741) was used on a StepOnePlus (Applied Biosystems), and real time PCR results were analyzed using a ΔΔCt methodology. TBP and GUSB were both used as housekeeping genes. Primer sequences were as follows.
Cells were single-cell dispersed with TrypLE and fixed with 4% PFA for 30 minutes. Cells were then washed with PBS and incubated with ICC solution for 45 minutes at room temperature, incubated with primary antibodies overnight at 4° C., and incubated with secondary antibodies for 2 hours at room temperature. Cells were then washed twice with ICC solution and filtered before running on the LSRII flow cytometer (BD Biosciences). Analysis was completed with FlowJo.
Static GSIS: To assess the function of cells produced by the hybrid protocol, static GSIS was performed with cells still attached to 96 or 24-well tissue culture plates. To assess function of clusters generated with the planar protocol, approximately 30 clusters were collected and placed in tissue culture transwell inserts (MilliporeSigma, PIXP01250) in a 24-well plate. […] Cells were first incubated in a 2 mM glucose KRB solution at 37° C. for one hour, after which this solution was discarded and replaced with fresh 2 mM glucose KRB. After an additional hour, the supernatant was collected. 20 mM glucose KRB was added for the next hour, after which the supernatant was again collected. Cells were washed with fresh KRB during each solution change. Cells were then single-cell dispersed with TrypLE and counted with the Vi-Cell XR (Beckman Coulter). Supernatants from the low and high glucose challenges were quantified with a human insulin ELISA (ALPCO, 80-INSHU-E10.1), and cell counts were used to normalize insulin secretion.
Whole SC-β cell clusters or cells attached to culture plates were washed twice thoroughly with PBS. Half of the clusters or an equivalent well of plated cells were immersed in TrypLE for cell counts on the Vi-Cell XR. For the other half of the samples, a solution of 1.5% HCl and 70% ethanol was added to either the clusters in eppendorf tubes or directly onto plated cells. After 15 minutes, the plated cells were pipetted vigorously and transferred to eppendorf tubes. The eppendorf tubes from both clusters and plated cells were kept at −20° C. for 72 hours, vortexing vigorously every 24 hours. Samples were then centrifuged at 2100 RCF for 15 minutes. […] Proinsulin and insulin secretion were normalized to the viable cell counts.

[2] = test system: HUES8 cells, intestinal differentiation protocol; experiment: Intestine differentiation with cytoskeletal compounds; settings: 1 μM for the first 24 hours of stage 2
Procedure: (§1) For differentiation to other endodermal lineages, HUES8 stem cells were cultured and passaged normally. Differentiations were initiated 24 hours after seeding 24-well plates at 0.521×10^6 cells/cm^2. Protocols for exocrine pancreas, intestine, and liver were adapted, from literature. Either latrunculin A or nocodazole were added as indicated in each protocol. All three differentiation protocols used the same stage 1 to induce endoderm. Stage 1 (4 days): BE1 media+100 ng/mL Activin A+3 μM CHIR99021 for the first 24 hours, followed with 3 days of BE1 containing 100 ng/mL Activin A only.
Intestine Differentiation: Stage 2 (4 days): BE2 media+3 μM CHIR99021+500 ng/mL FGF4 (R&D Systems, 235-F4). Either 1 μM latrunculin A was added for the first 24 hours of this stage, or 1 μM nocodazole was added for the entirety of stage 2. Stage 3 (7 days): BE3 media+500 ng/mL R-spondin1 (R&D Systems, 4645-RS)+100 ng/mL EGF (R&D Systems, 236-EG)+200 nM LDN193189.

[3] = test system: HUES8 cells, hepatic differentiation protocol; experiment: Liver differentiation with cytoskeletal compounds; settings: 1 μM for the first 24 hours of stage 3
Procedure: as §1
Liver Differentiation: Stage 2 (2 days): BE2 media+50 ng/mL KGF. Stage 3 (4 days): BE3 media+10 ng/mL bFGF+30 ng/mL BMP4 (R&D Systems, 314-BP). For the first 24 hours only, 2 μM retinoic acid and either 1 μM latrunculin A or 1 μM nocodazole were added. Stage 4 (5 days): BE3 media+20 ng/mL OSM (R&D Systems, 295-OM)+20 ng/mL HGF (R&D Systems, 294-HG)+100 nM dexamethasone (MilliporeSigma, D4902).

[4] = 24 hour 1 μM treatment, stage 5

## C/C1=C/C(=O)O[C@@H]2C[C@@H](CC[C@H](C)/C=C\C=C\CC1)O[C@@](O)([C@@H]1CSC(=O)N1)C2 [latrunculin A]
[1]; 0.5 μM added during stage 5
  endocrine induction, SC-β cell specification and GSIS: greatest increase in endocrine induction, SC-β cell specification, and glucose-stimulated insulin secretion (GSIS)
[1]; 0.5 μM throughout either stage 4 or stage 6
  endocrine induction and β-cell specification: increased both general endocrine induction (CHGA+) and β-cell specification (NKX6-1+/c-peptide+)
[1]; 1 μM during the first 24 hours of stage 5
  GSIS, optimization of duration and concentration during stage 5: most benefit at the shortest and lowest dose
[1]; [4]
  expression of endocrine genes: increased expression of endocrine genes
  expression of markers associated with other endodermal lineages: reduced
  pro-insulin/insulin ratio: improved pro-insulin/insulin ratio
  total insulin content: increased total insulin content
[2]
  markers of intestinal stem cells and Paneth cells: greatly increased markers intestinal stem cells as well as Paneth cells
[3]
  hepatocyte gene expression: increased hepatocyte gene expression
  immunostaining for AFP: more prevalent with latrunculin A treatment

Reference: US20210207099A1, “METHODS AND COMPOSITIONS FOR GENERATING CELLS OF ENDODERMAL LINEAGE AND BETA CELLS AND USES THEREOF” (priority 2018, published 2021)
